Test results from patent US6238693A, “Transdermal administration of fenoldopam” (priority 1999, dated 2001).
Where a name gives a salt, the structure may show the parent alone.

What was measured:
guinea pigs [1] = settings: guinea pig, in vivo
Protocol: (§1) Dermal sensitization studies in guinea pigs were done to assess the contact sensitization of fenoldopam mesylate and of R-fenoldopam mesylate, the active enantiomer, when administered topically and intradermally. Each of the drugs, the fenoldopam mesylate and the R-fenoldopam mesylate, were administered to the animals from a 50:50 mixture of propylene glycol/water, at drug concentrations of 40 mg/mL, 30 mg/mL, 20 mg/mL, and 10 mg/mL.
As described in Example 2, sixteen animals were divided into 4 groups of 4 animals each. The first group of 4 animals (Group 1) were treated with a topical application of fenoldopam mesylate at the four concentrations. Each animal, after having the hair removed from its back and sides, received each of the concentrations applied at four separate sites. The animals in Group 2 were similarly treated, except with R-fenoldopam. After 24 hours of exposure to the test material, the application site was scored on a four-point scale for dermal reactions (0=no reaction, 1=moderate mild redness, 2=moderate and diffuse redness, 3=intense redness and swelling). […]
For the topical application, the test materials were placed on 2 cm×2 cm pieced of filter paper to saturation and allowed to remain in place on the animal for 24 hours. […] The sites were scored on the following four-point scale for dermal reactions at approximately 24 and 48 hours after patch removal: […]

guinea pigs [2] = settings: guinea pig, in vivo; remark: listed apart in the source
Protocol: as §1
Dermal sensitization was also evaluated following intradermal injection of fenoldopam mesylate and R-fenoldopam at the same concentrations used in the topical screening. As described in Example 2, four animals (Group 3) were treated with […] injections of fenoldopam mesylate at four injection sites, one for each of the four concentrations. Four animals in Group 4 were similarly injected with R-fenoldopam at the four concentrations. 24 hours after injection, the injection sites were scored for dermal reaction on the 4-point scale.
Guinea pigs (strain: CRl (HA)BR) were obtained from Charles River Laboratories. The animals were young adults, weighing between 350-550 g at the start of the study. Each animals was housed individually and fed ad libitum a certified
A stock solution of 50% propylene glycol/50% sterile water mixture was prepared as the control material and for preparation of the test materials.
On each day of testing, a 40 mg/mL fenoldopam mesylate or R-fenoldopam mesylate in 50% propylene glycol/50% sterile water solution was prepared using the stock solution. The 40 mg/mL drug solution was diluted with the stock solution to prepare solutions of 30 mg/mL, 20 mg/mL and 10 mg/mL of both the racemate and the enantiomer. All test materials were used within 8 hours of preparation and were stored at room temperature until administered.
Sixteen guinea pigs were divided into the following groups:
For the intradermal injection, the four animals in Group 3 were treated with intradermal injection of fenoldopam mesylate and the four animals in Group 4 were treated with intradermal injections of R-fenoldopam mesylate. The test materials were administered at concentrations of 40 mg/mL, 30 mg/mL, 20 mg/mL and 10 mg/mL by injecting each at a volume of 0.1 mL into a separate site on the shaved back of the test animal. The areas of intradermal injections were evaluated for dermal irritation on the four-point scale given above at 24 and 48 hours after injection. The test sites were clipped with an electric clipper before the first reading.

guinea pigs [3] = assay: Dermal sensitization challenge study (definitive study); type: in vivo, guinea pig; settings: 40 mg/mL challenge
Protocol: Based on the results from this initial phase of dermal sensitization studies, a definitive challenge dermal sensitivity study was conducted, as described in Example 3. Briefly, thirty animals were divided into three test groups of 10 animals each. The animals in Group 5 were treated with fenoldopam mesylate, the animals in Group 6 with R-fenoldopam mesylate and the animals in Group 7 were treated with vehicles alone as a control.
All animals were initially treated with intradermal injections of the test compound, e.g., fenoldopam mesylate (Group 5) or R-fenoldopam (Group 6), in a 1:1 mixture of propylene glycol:water or in a mixture of Freund's Complete Adjuvent (FCA) in propylene glycol:water. The drug concentration in these vehicle mixtures was 40 mg/mL (see Table 4 in Example 3). The animals were also treated with FCA in water alone. The animals in Group 7 received the same three formulations, except for the absence of fenoldopam.
One week after the intradermal injections, each of the test formulations was applied topically to the injection site. The topical application, in the form of a saturated patch of filter paper, was left in place for 48 hours.
Two weeks after the topical application, the animals in groups 5 and 6 received a challenge dose of 40 mg/mL of the test compound in PG:water, applied topically to a naive site. On the opposing side of the animal, the vehicle alone (PG:water) was applied. The animals in Group 7 received the vehicle alone on both sides. 24 hours after the topical challenge dose, the site was scored for dermal sensitization using the four-point scale given above.
Thirty guinea pigs were obtained and cared for as set forth in Example 2.
On Day 1 of the study, an area approximately 4 cm×6 cm was clipped with an electric clipper along the midline over the shoulder region of each animal in the test and control groups. Two rows of three 0.1 mL intradermal injections were made within the boundaries of a 2 cm×4 cm area, one row on each side of the midline. The injections in each row were as follows: at the anterior site, the animal received 0.1 mL of the prepared Freund's Complete Adjuvent (FCA) solution (Groups 5, 6 and 7); at the medial site, the animals received 0.1 mL of the respective prepared test material (Groups 5 and 6) or vehicle control (Group 7); and at the posterior site, the animals received 0.1 mL of the respective test material (drug in PG:water) further mixed with FCA solution (Groups 5 and 6) or a 1:1 dilution of the PG:water vehicle control in FCA.
On Day 7, the area of intradermal injection on each animal in Groups 5, 6 and 7 was clipped free of hair with an electric clipper. The clipped area was treated with 10% w/w sodium lauryl sulfate in petrolatum. […]

[4] = cited from earlier work
[5] = test system: dopamine type-1 receptors; settings: cited from earlier work
[6] = exposure to the atmosphere during storage; cited from earlier work
[7] = cited from earlier work; remark: listed apart in the source
[8] = intravenous infusion, therapeutic dosages

## Oc1ccc(C2CNCCc3c2cc(O)c(O)c3Cl)cc1 (racemic) [fenoldopam mesylate]
Guinea pigs [1]
  Dermal Reactions, topical application: 0
Guinea pigs [2]
  Dermal Reactions, intradermal injection: 2
  appearance of injection site (footnote): Whitish in color
Guinea pigs [3]
  animals scored as having "scattered mild redness": 6 of the 10 animals
  dermal sensitization (summary): moderate dermal sensitization

## Oc1ccc(C2CNCCc3c2cc(O)c(O)c3Cl)cc1 (racemic) [racemic fenoldopam]
[4]; human, in vivo, iv
  average clearance (CL): 2.6 L/min
  half-life (t1/2): 4.6 min

## Oc1ccc([C@H]2CNCCc3c2cc(O)c(O)c3Cl)cc1 [R-fenoldopam mesylate]
Guinea pigs [1]
  Dermal Reactions, topical application: 0
Guinea pigs [2]
  Dermal Reactions, intradermal injection: 2
  appearance of injection site (footnote): Whitish in color
Guinea pigs [3]
  animals scored as having "scattered mild redness": 5 of the 10 animals
  dermal sensitization (summary): moderate dermal sensitization

## Oc1ccc([C@H]2CNCCc3c2cc(O)c(O)c3Cl)cc1 [R-fenoldopam]
[5]
  biological activity of enantiomer: the activity of the drug is due to the R-enantiomer

## Oc1ccc([C@@H]2CNCCc3c2cc(O)c(O)c3Cl)cc1 [S-fenoldopam]
[5]
  biological activity of enantiomer: relatively inactive

## Oc1ccc(C2CNCCc3c2cc(O)c(O)c3Cl)cc1 (stereo not shown) [fenoldopam free base]
[6]
  oxidation: readily oxidized

## Oc1ccc(C2CNCCc3c2cc(O)c(O)c3Cl)cc1 (stereo not drawn) [fenoldopam, 6-chloro-2,3,4,5-tetrahydro-l-(4-hydroxyphenyl)-1H-3-benzazepine-7,8-diol]
[4]; intravenous, about 0.01-1.6 μg/kg/min for up to 48 hours
  time to achieve dose-dependent steady-state plasma concentration: about 20 minutes
[4]; via sulfation and glucuronidation
  first-pass metabolism: high first-pass metabolism
[7]; in vivo
  blood pressure: decrease in blood pressure
  duration of antihypertensive and renal effects: short lasting
  renal vasodilation, diuresis and natriuresis: renal vasodilation, diuresis and natriuresis
[7]; [8]
  creatinine clearance, urinary flow and excretion of sodium and potassium: increasing creatinine clearance, urinary flow and excretion of sodium and potassium
  glomerular filtration rate: maintaining glomerular filtration rate
  renal blood flow: increases renal blood flow
  renal vascular resistance: decreases renal vascular resistance
[5]; via stimulation of dopamine type-1 receptors
  dopamine agonism / peripheral vasodilation: dopamine agonist that causes peripheral vasodilation
